Article PMC11094777, “Mutational and structural studies of (βα)8‐barrel fold methylene‐tetrahydropterin reductases utilizing a common catalytic mechanism” (Protein Science : A Publication of the Protein Society, 2024)
Like-named read-outs stand apart in the source and are kept apart here.

Tests used:
Assay in all cases: F420H2 oxidation followed at […] nm, anaerobic
Format in all cases: biochemical
[1] = target: T1, jMer (F420-dependent methylene-H4MPT reductase from Methanocaldococcus jannaschii) (Methanocaldococcus jannaschii, UniProt Q58929); conditions: 20 μM F420H2, 100 mM Tris/HCl pH 8.0, 55°C; read-out: App. K m
T1 construct: gene mer; pT7-7_jMer in E. coli ArcticExpress (DE3); no tag mentioned; heat step and column purification; homodimer ~80 kDa
T1 sequence (Q58929 whole entry): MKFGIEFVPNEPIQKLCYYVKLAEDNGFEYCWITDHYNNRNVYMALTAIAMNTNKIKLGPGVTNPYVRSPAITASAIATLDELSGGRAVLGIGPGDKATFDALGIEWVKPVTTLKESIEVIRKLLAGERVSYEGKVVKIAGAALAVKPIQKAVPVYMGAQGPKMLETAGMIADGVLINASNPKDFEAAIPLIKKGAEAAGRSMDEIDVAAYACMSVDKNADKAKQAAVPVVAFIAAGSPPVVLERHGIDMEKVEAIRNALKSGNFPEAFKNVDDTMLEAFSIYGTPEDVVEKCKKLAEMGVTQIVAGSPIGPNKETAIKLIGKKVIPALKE

[2] = target: T1, jMer (F420-dependent methylene-H4MPT reductase from Methanocaldococcus jannaschii); conditions: 20 μM F420H2, 100 mM Tris/HCl pH 8.0, 55°C; methylene-H4MPT made in situ from H4MPT and 15 mM formaldehyde; read-out: App. K m
[3] = target: T2, jMer (F420-dependent methylene-H4MPT reductase from Methanocaldococcus jannaschii) (Methanocaldococcus jannaschii, UniProt Q58929, E6Q, form not given); conditions: 20 μM F420H2, 100 mM Tris/HCl pH 8.0, 55°C; read-out: App. K m
T2 construct: gene mer; pT7-7_jMer in E. coli ArcticExpress (DE3); no tag mentioned; heat step and column purification; homodimer ~80 kDa
T2 sequence (Q58929 whole entry E6Q, form open): as the sequence (Q58929 whole entry) above, with E6Q counted along it

[4] = target: T3, jMer (F420-dependent methylene-H4MPT reductase from Methanocaldococcus jannaschii) (Methanocaldococcus jannaschii, UniProt Q58929, D96N, form not given); conditions: 20 μM F420H2, 100 mM Tris/HCl pH 8.0, 55°C; read-out: App. K m
T3 construct: gene mer; pT7-7_jMer in E. coli ArcticExpress (DE3); no tag mentioned; heat step and column purification; homodimer ~80 kDa
T3 sequence (Q58929 whole entry D96N, form open): as the sequence (Q58929 whole entry) above, with D96N counted along it

**Q.** Which results are given for C[C@@H]1Nc2nc(N)[nH]c(=O)c2N2CN(c3ccc(C[C@H](O)[C@H](O)[C@H](O)CO[C@H]4O[C@H](COP(=O)(O)O[C@@H](CCC(=O)O)C(=O)O)[C@@H](O)[C@H]4O)cc3)[C@H](C)[C@@H]12 [Methylene‐H4MPT]?
**A.** Km [1]: 20 ± 5 µM; Km [2]: 58 ± 29.7 µM; Km [3]: 34 ± 10 µM; Km [4]: 140 ± 30 µM
